According to patent US11795204B2 (Zealand Pharma A/S, priority 2012, dated 2023):
Square brackets hold non-standard residues; d marks the D form. Peptide text beside a SMILES is read from it. Dab = NCC[C@H](N)C(=O)O; Dap = NC[C@H](N)C(=O)O; Aib = CC(C)(N)C(=O)O

How the values were obtained:
human Glucagon-R = molecular target: T1, human Glucagon-R (Homo sapiens, UniProt P47871); test: Glucagon receptor assay (cAMP induction, AlphaScreen); type: cell-based; details: HEK293 cells expressing the human Glucagon-R, 15 min at 37° C., read-out: GCG-R EC50 in vitro
T1 construct: expressed in transfected cells
T1 sequence (P47871 26-477): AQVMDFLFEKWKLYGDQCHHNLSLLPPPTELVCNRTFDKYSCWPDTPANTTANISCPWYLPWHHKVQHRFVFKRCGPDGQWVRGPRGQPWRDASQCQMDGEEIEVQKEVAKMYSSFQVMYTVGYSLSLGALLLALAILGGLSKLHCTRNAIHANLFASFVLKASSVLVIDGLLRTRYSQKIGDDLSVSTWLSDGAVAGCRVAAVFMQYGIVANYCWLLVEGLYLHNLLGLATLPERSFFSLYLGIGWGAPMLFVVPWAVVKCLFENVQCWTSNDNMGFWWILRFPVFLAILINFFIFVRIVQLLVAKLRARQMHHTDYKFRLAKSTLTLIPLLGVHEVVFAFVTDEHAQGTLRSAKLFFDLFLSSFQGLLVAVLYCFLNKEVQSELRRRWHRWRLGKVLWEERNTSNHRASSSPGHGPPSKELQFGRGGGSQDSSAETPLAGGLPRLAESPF
Description: The 5′-end primers additionally encoded a near-Kozak consensus sequence to ensure efficient translation. […] 48 hr after transfection, cells were seeded for limited dilution cloning and selected with 1 mg/ml G418 in the culture medium.
On the day of analysis, growth medium was removed and the cells were washed once with […] of the included Assay buffer with IBMX. Cells were incubated in […] Assay buffer/IBMX containing increasing concentrations of test peptides for 15 min at 37° C. Then the peptides/Assay buffer was removed and cells were lysed by addition of […] Lysis buffer pr. well and incubation for at least 10 min at room temperature. From each well […] cell lysate was transferred to a 384-well OptiPlate and mixed with Donor and Acceptor beads and incubated for 1 h at room temperature. The cAMP content was measured on an Envision plate reader.

physchem = details: pH 7.5
Description: A stock solution of the test peptide (2 mg/ml; determined by measurement of the absorption of the solution at 280 nm, and using the theoretical extension coefficient based on the content of tryptophan and tyrosine in the peptide) in demineralized water adjusted to pH 2.5 with HCl was prepared, and aliquots were diluted 1:1 in 100 mM acetate buffer (pH 4.0) and 100 mM phosphate buffer (pH 7.5), respectively, and loaded in a standard flat-bottom, non-sterile 96-well UV Microplate. The absorbance of samples (single samples, n=1) at 280 and 325 nm was measured in an absorbance-based plate reader, which was preheated to ambient temperature.

[1] = Chemical stability assessment (RP-HPLC normalized purity); type: physicochemical; details: for Normalized purity pH 4.0 after 14 days: 1 mg/ml in 50 mM acetate buffer pH 4.0, 40° C.; for Normalized purity pH 7.5 after 14 days: 1 mg/ml in 50 mM phosphate buffer pH 7.5, 40° C.
Description: Samples were placed in glass vials and incubated at 40° C. The samples were analysed by reverse-phase HPLC on a C18 column with gradient elution using an acetonitrile/trifluoroacetic acid/water eluent system. The area-percentage (area-%) of the main peak after incubation time T=t (relative to time T=0) was detected by UV spectrometry at 220 nm. The purity was first determined as follows: Purity(area-%)=(area of main peak/total area of all peaks)×100. […] Normalized purity values in Table 2 were determined after 14 days of incubation.

| Compound | EC50 (human Glucagon-R) [pM] | solubility (physchem) [µg/mL] | Normalized purity pH 4.0 after 14 days [1] [%] | Normalized purity pH 7.5 after 14 days [1] [%] |
| --- | --- | --- | --- | --- |
| CC(C)C[C@H](NC(=O)[C@H](Cc1c[nH]c2ccccc12)NC(=O)[C@H](CCCCN)NC(=O)[C@@H](NC(=O)[C@H](Cc1ccccc1)NC(=O)[C@H](CC(=O)O)NC(=O)[C@H](CCC(=O)O)NC(=O)[C@H](C)NC(=O)[C@H](CCCNC(=N)N)NC(=O)[C@H](C)NC(=O)C(C)(C)NC(=O)[C@H](CC(=O)O)NC(=O)[C@H](CC(C)C)NC(=O)[C@H](Cc1ccc(O)cc1)NC(=O)[C@H](CCCCN)NC(=O)[C@H](CO)NC(=O)[C@H](Cc1ccc(O)cc1)NC(=O)[C@H](CC(=O)O)NC(=O)[C@H](CO)NC(=O)[C@@H](NC(=O)[C@H](Cc1ccccc1)NC(=O)[C@@H](NC(=O)CNC(=O)[C@H](CCC(N)=O)NC(=O)[C@H](CO)NC(=O)[C@@H](N)Cc1c[nH]cn1)[C@@H](C)O)[C@@H](C)O)C(C)C)C(=O)N[C@@H](CCC(=O)O)C(=O)N[C@@H](CO)C(=O)N[C@H](C(=O)O)[C@@H](C)O [Compound 12] (H-HSQGTFTSDYSKYLD[Aib]ARAEDFVKWLEST-OH) | 30 | ≥ 1000 | 86.8 | 90.8 |
| CC(C)C[C@H](NC(=O)[C@H](Cc1c[nH]c2ccccc12)NC(=O)[C@H](CCCCN)NC(=O)[C@@H](NC(=O)[C@H](Cc1ccccc1)NC(=O)[C@H](CO)NC(=O)[C@H](CCC(=O)O)NC(=O)[C@H](C)NC(=O)[C@H](CCCNC(=N)N)NC(=O)[C@H](C)NC(=O)C(C)(C)NC(=O)[C@H](CC(=O)O)NC(=O)[C@H](CC(C)C)NC(=O)[C@H](Cc1ccc(O)cc1)NC(=O)[C@H](CCCCN)NC(=O)[C@H](CO)NC(=O)[C@H](Cc1ccc(O)cc1)NC(=O)[C@H](CC(=O)O)NC(=O)[C@H](CO)NC(=O)[C@@H](NC(=O)[C@H](Cc1ccccc1)NC(=O)[C@@H](NC(=O)CNC(=O)[C@H](CCC(N)=O)NC(=O)[C@H](CO)NC(=O)[C@@H](N)Cc1c[nH]cn1)[C@@H](C)O)[C@@H](C)O)C(C)C)C(=O)N[C@@H](CCC(=O)O)C(=O)N[C@@H](CO)C(=O)N[C@H](C(=O)O)[C@@H](C)O [Compound 15] (H-HSQGTFTSDYSKYLD[Aib]ARAESFVKWLEST-OH) | 30 | ≥ 1000 | 89.1 | 95.1 |
| CC(C)C[C@H](NC(=O)[C@H](Cc1c[nH]c2ccccc12)NC(=O)[C@H](CCCCN)NC(=O)[C@@H](NC(=O)[C@H](Cc1ccccc1)NC(=O)[C@H](CO)NC(=O)[C@H](CCC(=O)O)NC(=O)[C@H](C)NC(=O)[C@H](CCCNC(=N)N)NC(=O)[C@H](C)NC(=O)C(C)(C)NC(=O)[C@H](CC(=O)O)NC(=O)[C@H](CC(C)C)NC(=O)[C@H](Cc1ccc(O)cc1)NC(=O)[C@H](CCCCN)NC(=O)[C@H](CO)NC(=O)[C@H](Cc1ccc(O)cc1)NC(=O)[C@H](CC(=O)O)NC(=O)[C@H](CO)NC(=O)[C@@H](NC(=O)[C@H](Cc1ccccc1)NC(=O)[C@@H](NC(=O)[C@@H](C)NC(=O)[C@H](CCC(N)=O)NC(=O)[C@H](CO)NC(=O)[C@@H](N)Cc1c[nH]cn1)[C@@H](C)O)[C@@H](C)O)C(C)C)C(=O)N[C@@H](CCC(=O)O)C(=O)N[C@@H](CO)C(=O)N[C@H](C(=O)O)[C@@H](C)O [Compound 22] (H-HSQ[dA]TFTSDYSKYLD[Aib]ARAESFVKWLEST-OH) | 24 | ≥ 1000 | 91.1 | 95.3 |
| CC(=O)NCC[C@H](NC(=O)[C@H](CO)NC(=O)[C@@H](N)Cc1c[nH]cn1)C(=O)NCC(=O)N[C@H](C(=O)N[C@@H](Cc1ccccc1)C(=O)N[C@H](C(=O)N[C@@H](CO)C(=O)N[C@@H](CC(=O)O)C(=O)N[C@@H](Cc1ccc(O)cc1)C(=O)N[C@@H](CO)C(=O)N[C@@H](CCCCN)C(=O)N[C@@H](Cc1ccc(O)cc1)C(=O)N[C@@H](CC(C)C)C(=O)N[C@@H](CC(=O)O)C(=O)NC(C)(C)C(=O)N[C@@H](C)C(=O)N[C@@H](CCCNC(=N)N)C(=O)N[C@@H](C)C(=O)N[C@@H](CCC(=O)O)C(=O)N[C@@H](CO)C(=O)N[C@@H](Cc1ccccc1)C(=O)N[C@H](C(=O)N[C@@H](CCCCN)C(=O)N[C@@H](Cc1c[nH]c2ccccc12)C(=O)N[C@@H](CC(C)C)C(=O)N[C@@H](CCC(=O)O)C(=O)N[C@@H](CO)C(=O)N[C@H](C(N)=O)[C@@H](C)O)C(C)C)[C@@H](C)O)[C@@H](C)O [Compound 24] (H-HS[Dab](Ac)GTFTSDYSKYLD[Aib]ARAESFVKWLEST-NH2) | 7.8 | ≥ 1000 | 92.8 | 94.4 |
| CC(C)C[C@H](NC(=O)[C@H](Cc1c[nH]c2ccccc12)NC(=O)[C@H](CCCCN)NC(=O)[C@@H](NC(=O)[C@H](Cc1ccccc1)NC(=O)[C@H](CO)NC(=O)[C@H](CCC(=O)O)NC(=O)[C@H](C)NC(=O)[C@H](CCCNC(=N)N)NC(=O)[C@H](CCCNC(=N)N)NC(=O)C(C)(C)NC(=O)[C@H](CC(=O)O)NC(=O)[C@H](CC(C)C)NC(=O)[C@H](Cc1ccc(O)cc1)NC(=O)[C@H](CCCCN)NC(=O)[C@H](CO)NC(=O)[C@H](Cc1ccc(O)cc1)NC(=O)[C@H](CC(=O)O)NC(=O)[C@H](CO)NC(=O)[C@@H](NC(=O)[C@H](Cc1ccccc1)NC(=O)[C@@H](NC(=O)CNC(=O)[C@H](CCC(N)=O)NC(=O)[C@H](CO)NC(=O)[C@@H](N)Cc1c[nH]cn1)[C@@H](C)O)[C@@H](C)O)C(C)C)C(=O)N[C@@H](CCC(=O)O)C(=O)N[C@@H](CO)C(=O)N[C@H](C(=O)O)[C@@H](C)O [Compound 25] (H-HSQGTFTSDYSKYLD[Aib]RRAESFVKWLEST-OH) | 6.6 | ≥ 1000 | 93.8 | 89.8 |
| CC(=O)NCC[C@H](NC(=O)[C@H](CO)NC(=O)[C@@H](N)Cc1c[nH]cn1)C(=O)NCC(=O)N[C@H](C(=O)N[C@@H](Cc1ccccc1)C(=O)N[C@H](C(=O)N[C@@H](CO)C(=O)N[C@@H](CC(=O)O)C(=O)N[C@@H](Cc1ccc(O)cc1)C(=O)N[C@@H](CO)C(=O)N[C@@H](CCCCN)C(=O)N[C@@H](Cc1ccc(O)cc1)C(=O)N[C@@H](CC(C)C)C(=O)N[C@@H](CC(=O)O)C(=O)NC(C)(C)C(=O)N[C@@H](C)C(=O)N[C@@H](CCCNC(=N)N)C(=O)N[C@@H](C)C(=O)N[C@@H](CCC(=O)O)C(=O)N[C@@H](CCC(=O)O)C(=O)N[C@@H](Cc1ccccc1)C(=O)N[C@H](C(=O)N[C@@H](CCCCN)C(=O)N[C@@H](Cc1c[nH]c2ccccc12)C(=O)N[C@@H](CC(C)C)C(=O)N[C@@H](CCC(=O)O)C(=O)N[C@@H](CO)C(=O)N[C@H](C(N)=O)[C@@H](C)O)C(C)C)[C@@H](C)O)[C@@H](C)O [Compound 40] (H-HS[Dab](Ac)GTFTSDYSKYLD[Aib]ARAEEFVKWLEST-NH2) | 3.5 | ≥ 1000 |  |  |
| CC(=O)NC[C@H](NC(=O)[C@H](CO)NC(=O)[C@@H](N)Cc1c[nH]cn1)C(=O)NCC(=O)N[C@H](C(=O)N[C@@H](Cc1ccccc1)C(=O)N[C@H](C(=O)N[C@@H](CO)C(=O)N[C@@H](CC(=O)O)C(=O)N[C@@H](Cc1ccc(O)cc1)C(=O)N[C@@H](CO)C(=O)N[C@@H](CCCCN)C(=O)N[C@@H](Cc1ccc(O)cc1)C(=O)N[C@@H](CC(C)C)C(=O)N[C@@H](CC(=O)O)C(=O)NC(C)(C)C(=O)N[C@@H](C)C(=O)N[C@@H](CCCNC(=N)N)C(=O)N[C@@H](C)C(=O)N[C@@H](CCC(=O)O)C(=O)N[C@@H](CCC(=O)O)C(=O)N[C@@H](Cc1ccccc1)C(=O)N[C@H](C(=O)N[C@@H](CCCCN)C(=O)N[C@@H](Cc1c[nH]c2ccccc12)C(=O)N[C@@H](CC(C)C)C(=O)N[C@@H](CCC(=O)O)C(=O)N[C@@H](CO)C(=O)N[C@H](C(N)=O)[C@@H](C)O)C(C)C)[C@@H](C)O)[C@@H](C)O [Compound 41] (H-HS[Dap](Ac)GTFTSDYSKYLD[Aib]ARAEEFVKWLEST-NH2) | 3.8 | ≥ 1000 |  |  |
| H-HSQGTFTSDYSKYLDEARAKSFVEWLEKT-OH [Compound 27] | 63 | ≥ 1000 |  |  |
| H-HSQGTFTSDYSKYLDEARAKSFVEWLEST-OH [Compound 28] | 35 | ≥ 1000 |  |  |
| H-HSQGTFTSDYSKYLDKRRAEDFVSWLEST-OH [Compound 18] | 26 | ≥ 1000 |  |  |
| H-HSQGTFTSDYSKYLDSARAEDFVEWLEST-OH [Compound 6] | 1000 | ≥ 1000 |  |  |
| H-HSQGTFTSDYSKYLDSARAEDFVSWLEST-OH [Compound 10] | 320 | ≥ 1000 |  |  |
| H-HSQGTFTSDYSKYLDSARAEEFVKWLEST-OH [Compound 9] | 30 | ≥ 1000 |  |  |
| H-HSQGTFTSDYSKYLDSARAESFVKWLEST-OH [Compound 1] | 64 | ≥ 1000 |  |  |
| H-HSQGTFTSDYSKYLDVARAESFVKWLEST-OH [Compound 19] | 54 | ≥ 1000 |  |  |
| H-HSQGTFTSDYSKYLESARAEDFVKWLEST-OH [Compound 8] | 380 | ≥ 1000 |  |  |
| H-HSQGTFTSDYSRYLESARAEDFVKWLEST-OH [Compound 7] | 930 | ≥ 1000 |  |  |
